Values joined by “and” are separate entries in the source; they are usually repeats but may differ in a detail not shown here. Identical values can stand only once. Like-named read-outs stand apart in the source and are kept apart here.
Test: Plasma pharmacokinetics of Compound I after single intraperitoneal dose in Swiss-Webster mice (Example 1)
Type: in vivo
Description: Example 1 provides a summary of three pharmacokinetic studies Compound I conducted in Swiss-webster mice. The pharmacokinetics of 5 mg/kg, 15 mg/kg and 50 mg/kg of Compound I via the intraperitoneal route were discussed.
Compound I was prepared using the method described in the U.S. Publication 2012/0040932 A1. 100 mg of Compound I was dissolved in 30% 1N NaOH to ˜pH 5.0 as a stock solution. Compound I was further diluted in 0.9% saline to achieve target concentrations.
The specifications for animals used on this study were as follows: • Species: Mouse • Strain: CFW (Swiss) • Gender: Female • Source: Harlan Laboratories (Livermore, Calif.) • Number of Animals: 33 for each dose • Body Weight Range: 18-22 g at the start of the study
After acclimation, mice were administered a single intraperitoneal dose of Compound I at 5, 15, and 50 mg/kg. Groups of three mice were sacrificed at 0.08, 0.16, 0.25, 0.33, 0.5, 0.75, 1.0, 2.0, 3.0, and 4.0 h after dosing. Blood samples (one sample per animal) were collected by cardiac puncture in a heparin containing tube. Blood samples were centrifuged within 5 min of collection at 12000 g for 5 min to obtain plasma. The plasma samples were stored on −80° C. until analyzed.
Compound I standard curves were prepared in plasma from 0.1 to 100 μg/mL. 50 μl aliquots of sample were placed in 1.5 mL microcentrifuge tubes. 20 μl of Compound II (10 μg/mL) was added as internal standard to each sample or standard. 20 μl of 30% trichloroacetic acid was then added to each sample or standard. The samples were mixed using a vortex mixer centrifuged for 10 min at 15,000 RPM using a tabletop centrifuge. The supernatant (approx. […]) was removed and added to 100 μl of water in a 96-well plate. The samples were mixed again using a vortex mixer. 10 μl of each sample was injected onto an HPLC-MS for quantification.
The HPLC-MS conditions for plasma analysis are as follows: • Column: Phenomenex Fusion-RP or equivalent reversed-phase column, 5 um, 50×2 mm. • Flow rate: 0.6 mL/min. • Mobile phase A: 0.1% formic acid in water. • Mobile phase B: 0.1% formic acid in acetonitrile. • Gradient: 5-60% B in 1.5 min. • Mass spectrometer: Negative ion mode with electrospray ionization. • MS/MS: Compound I-Q1-m/e=296, Q3-m/e=234. • Compound II-Q1-m/e=331, Q3-m/e=201.
Plasma concentrations were fit using a one compartment IV infusion model (WinNonlinVersion 5.3, Pharsight Corp, and Mountain View, Calif.).

[1] = Swiss-Webster mice, plasma, 5 mg/kg intraperitoneal
[2] = Swiss-Webster mice, plasma, 15 mg/kg intraperitoneal
[3] = Swiss-Webster mice, plasma, 50 mg/kg intraperitoneal
[4] = female, CFW (Swiss-Webster), mouse, ip, Swiss-Webster mice, plasma, 5 mg/kg intraperitoneal
[5] = female, CFW (Swiss-Webster), mouse, ip, Swiss-Webster mice, plasma, 15 mg/kg intraperitoneal
[6] = female, CFW (Swiss-Webster), mouse, ip, Swiss-Webster mice, plasma, 50 mg/kg intraperitoneal

O=C(O)C[C@@H]1CC[C@H](NC(=O)Cc2cccs2)B(O)O1 [Compound I]
Linearity of pharmacokinetics (Swiss-Webster mice, dose range of 5 to 50 mg/kg intraperitoneal): linear PK
AUC [1]: 3100 ng·h/mL
Cl [1]: 26.8 mL/min/kg
AUC [2]: 8300 ng·h/mL
Cl [2]: 30 mL/min/kg
AUC [3]: 31400 ng·h/mL
Cl [3]: 26.7 mL/min/kg
Cmax [4]: 8260 ng/mL
half-life [4]: 9.6 min
Cmax [5]: 19500 ng/mL
half-life [5]: 12 min
Cmax [6]: 67100 ng/mL
half-life [6]: 15 min
concentration at 0.08 h (female, CFW (Swiss-Webster), mouse, plasma, ip, 5 mg/kg, mouse plasma, 5 mg/kg intraperitoneal, samples m.p. 1.x = 1st time point (0.08 h), individual animals, read-out: Calc. Conc. (plasma concentration)): 5580 ng/mL
concentration at 0.5 h (female, CFW (Swiss-Webster), mouse, plasma, ip, 5 mg/kg, mouse plasma, 5 mg/kg intraperitoneal, samples m.p. 5.x = 5th time point (0.5 h), individual animals, read-out: Calc. Conc. (plasma concentration)): 1550 ng/mL
concentration at 4 h (female, CFW (Swiss-Webster), mouse, plasma, ip, 5 mg/kg, mouse plasma, 5 mg/kg intraperitoneal, samples m.p. 10.x = 10th time point (4.0 h), individual animals, read-out: Calc. Conc. (plasma concentration)): 3.71 ng/mL
concentration at 0.08 h (female, CFW (Swiss-Webster), mouse, plasma, ip, 15 mg/kg, mouse plasma, 15 mg/kg intraperitoneal, samples m.p. 1.x = 1st time point (0.08 h), individual animals, read-out: Calc. Conc. (plasma concentration)): 16700 ng/mL
concentration at 0.16 h (female, CFW (Swiss-Webster), mouse, plasma, ip, 15 mg/kg, mouse plasma, 15 mg/kg intraperitoneal, samples m.p. 2.x = 2nd time point (0.16 h), individual animals, read-out: Calc. Conc. (plasma concentration)): 15500 ng/mL
concentration at 2 h (female, CFW (Swiss-Webster), mouse, plasma, ip, 15 mg/kg, mouse plasma, 15 mg/kg intraperitoneal, samples m.p. 8.x = 8th time point (2.0 h), individual animals, read-out: Calc. Conc. (plasma concentration)): 126 ng/mL
concentration at 4 h (female, CFW (Swiss-Webster), mouse, plasma, ip, 15 mg/kg, mouse plasma, 15 mg/kg intraperitoneal, samples m.p. 10.x = 10th time point (4.0 h), individual animals, read-out: Calc. Conc. (plasma concentration)): < 0 ng/mL
concentration at 0.08 h (female, CFW (Swiss-Webster), mouse, plasma, ip, 50 mg/kg, mouse plasma, 50 mg/kg intraperitoneal, samples m.p. 1.x = 1st time point (0.08 h), individual animals, read-out: Calc. Conc. (plasma concentration)): 34800 ng/mL
concentration at 0.16 h (female, CFW (Swiss-Webster), mouse, plasma, ip, 50 mg/kg, mouse plasma, 50 mg/kg intraperitoneal, samples m.p. 2.x = 2nd time point (0.16 h), 5x dil., individual animals, read-out: Calc. Conc. (plasma concentration)): 58900 ng/mL
concentration at 0.25 h (female, CFW (Swiss-Webster), mouse, plasma, ip, 50 mg/kg, mouse plasma, 50 mg/kg intraperitoneal, samples m.p. 3.x = 3rd time point (0.25 h), 5x dil., individual animals, read-out: Calc. Conc. (plasma concentration)): 64200 ng/mL
concentration at 0.75 h (female, CFW (Swiss-Webster), mouse, plasma, ip, 50 mg/kg, mouse plasma, 50 mg/kg intraperitoneal, samples m.p. 6.x = 6th time point (0.75 h), individual animals, read-out: Calc. Conc. (plasma concentration)): 19100 ng/mL
concentration at 3 h (female, CFW (Swiss-Webster), mouse, plasma, ip, 50 mg/kg, mouse plasma, 50 mg/kg intraperitoneal, samples m.p. 9.x = 9th time point (3.0 h), individual animals, read-out: Calc. Conc. (plasma concentration)): 181 ng/mL
Calc. Conc. (plasma concentration) (mouse plasma, 5 mg/kg intraperitoneal, samples m.p. 1.x = 1st time point (0.08 h), individual animals, 5 mg/kg): 5.77 µg/mL and 4.84 µg/mL
Calc. Conc. (plasma concentration) (mouse plasma, 5 mg/kg intraperitoneal, samples m.p. 2.x = 2nd time point (0.16 h), individual animals, 5 mg/kg): 9.68 µg/mL and 7.41 µg/mL and 3.49 µg/mL
Calc. Conc. (plasma concentration) (mouse plasma, 5 mg/kg intraperitoneal, samples m.p. 3.x = 3rd time point (0.25 h), individual animals, 5 mg/kg): 9.08 µg/mL and 7.43 µg/mL and 3.8 µg/mL
Calc. Conc. (plasma concentration) (mouse plasma, 5 mg/kg intraperitoneal, samples m.p. 4.x = 4th time point (0.33 h), individual animals, 5 mg/kg): 3.37 µg/mL and 1.01 µg/mL and 3.73 µg/mL
Calc. Conc. (plasma concentration) (mouse plasma, 5 mg/kg intraperitoneal, samples m.p. 5.x = 5th time point (0.5 h), individual animals, 5 mg/kg): 1.87 µg/mL and 1.31 µg/mL
Calc. Conc. (plasma concentration) (mouse plasma, 5 mg/kg intraperitoneal, samples m.p. 6.x = 6th time point (0.75 h), individual animals, 5 mg/kg): 0.110 µg/mL and 0.872 µg/mL and 0.461 µg/mL
Calc. Conc. (plasma concentration) (mouse plasma, 5 mg/kg intraperitoneal, samples m.p. 7.x = 7th time point (1.0 h), individual animals, 5 mg/kg): 0.551 µg/mL and 0.213 µg/mL and 0.457 µg/mL
Calc. Conc. (plasma concentration) (mouse plasma, 5 mg/kg intraperitoneal, samples m.p. 8.x = 8th time point (2.0 h), individual animals, 5 mg/kg): 0.0898 µg/mL and 0.0404 µg/mL and 0.0440 µg/mL
Calc. Conc. (plasma concentration) (mouse plasma, 5 mg/kg intraperitoneal, samples m.p. 9.x = 9th time point (3.0 h), individual animals, 5 mg/kg): 0.0103 µg/mL and 0.0354 µg/mL and 0.00806 µg/mL
Calc. Conc. (plasma concentration) (mouse plasma, 5 mg/kg intraperitoneal, samples m.p. 10.x = 10th time point (4.0 h), individual animals, 5 mg/kg): 0.00577 µg/mL and 0.00418 µg/mL
Calc. Conc. (plasma concentration) (mouse plasma, 15 mg/kg intraperitoneal, samples m.p. 1.x = 1st time point (0.08 h), individual animals, 15 mg/kg): 9.67 µg/mL
Calc. Conc. (plasma concentration) (mouse plasma, 15 mg/kg intraperitoneal, samples m.p. 2.x = 2nd time point (0.16 h), individual animals, 15 mg/kg): 8.58 µg/mL
Calc. Conc. (plasma concentration) (mouse plasma, 15 mg/kg intraperitoneal, samples m.p. 3.x = 3rd time point (0.25 h), individual animals, 15 mg/kg): 9.53 µg/mL and 5.59 µg/mL and 14.3 µg/mL
Calc. Conc. (plasma concentration) (mouse plasma, 15 mg/kg intraperitoneal, samples m.p. 4.x = 4th time point (0.33 h), individual animals, 15 mg/kg): 5.6 µg/mL and 12.3 µg/mL and 4.44 µg/mL
